Values of other authors as cited in patent publication US10702482B2, “Slow-release solid oral compositions” (GNOSIS SPA, priority 2013, dated 2020).

## C[S+](CC[C@H](N)C(=O)O)C[C@H]1O[C@@H](n2cnc3c(N)ncnc32)[C@H](O)[C@@H]1O (stereo partly drawn) [SAMe, S-adenosyl-L-methionine]
  oral bioavailability (in words): rather poor oral bioavailability
